Assay results taken from ChEMBL document CHEMBL3301546, “MMV Malaria Box yeast growth screening”.

How the values were obtained:
Assay type in all cases: functional
Saccharomyces cerevisiae [1] = assay: (§1) MMV: Growth assays were conducted using the prototrophic S. cerevisiae strain JHY222. Each MMV compound (0.1 mM) was tested in rich media containing dextrose as a carbon source (Yeast Extract, Peptone, Dextrose; YPD). The growth rate in the presence of each MMV compound was calculated as follows: (i) the first 10 OD readings were averaged and subtracted from all OD readings of the corresponding curve to set the baseline of the growth curve to zero, and (ii) the area under the curve (AUC) was then calculated as the sum of all OD readings. […] A relative growth value was calculated as follows: AUC(DRUG) - AUC(DMSO)/AUC(DMSO); where AUC(DMSO) represents growth measured in a DMSO control well that was on the same microtiter plate of the drug-treated culture.
Saccharomyces cerevisiae [2] = assay: as §1, with “minimal” for “rich”, “ethanol and glycerol” for “dextrose”, “as” for “as a”, “sources” for “source”, “Nitrogen Base, Ethanol, Glycerol; YNBEG).” for “Extract, Peptone, Dextrose; YPD).”
Saccharomyces cerevisiae [3] = assay: as §1, with “minimal” for “rich”, “Nitrogen Base,” for “Extract, Peptone,”, “YNBD).” for “YPD).”

## CCOc1ccc(CN2CCN(CC(O)COc3ccc(OCC(O)CN4CCN(Cc5ccc(OCC)cc5)CC4)cc3)CC2)cc1 (configuration not stated)
Saccharomyces cerevisiae [1]
  Relative Growth: -0.0814
Saccharomyces cerevisiae [2]
  Relative Growth: -0.2934
Saccharomyces cerevisiae [3]
  Relative Growth: -0.1042

## COc1cc(-c2nc(-c3ccccc3)c(-c3ccccc3)[nH]2)cc(OC)c1O
Saccharomyces cerevisiae [1]
  Relative Growth: -0.0158
Saccharomyces cerevisiae [2]
  Relative Growth: -0.1558
Saccharomyces cerevisiae [3]
  Relative Growth: 0.0542

## CN1CCN(c2c3c(c(C#N)c4nc5ccccc5n24)CCC3)CC1
Saccharomyces cerevisiae [1]
  Relative Growth: -0.0644
Saccharomyces cerevisiae [2]
  Relative Growth: -0.4878
Saccharomyces cerevisiae [3]
  Relative Growth: 0.2469

## O=C(NC1CCCCC1)C(c1cccs1)N(CCc1ccccc1)C(=O)c1ccco1 (configuration not stated)
Saccharomyces cerevisiae [1]
  Relative Growth: -0.0109
Saccharomyces cerevisiae [2]
  Relative Growth: -0.2518
Saccharomyces cerevisiae [3]
  Relative Growth: -0.1735

## Oc1ccccc1CN1CCC2(CCCN(Cc3ccccc3F)C2)C1 (configuration not stated)
Saccharomyces cerevisiae [1]
  Relative Growth: -0.0746
Saccharomyces cerevisiae [2]
  Relative Growth: -0.309
Saccharomyces cerevisiae [3]
  Relative Growth: -0.0494

## CCc1ccc(CNCC(O)c2ccccc2)cc1.Cl (configuration not stated)
Saccharomyces cerevisiae [1]
  Relative Growth: -0.1772
Saccharomyces cerevisiae [2]
  Relative Growth: -0.0955
Saccharomyces cerevisiae [3]
  Relative Growth: -0.0182

## CSC1=NC(=Nc2c(C)cccc2C)C2(CCC(C(C)(C)C)CC2)N1c1ccc(Cl)cc1 (configuration not stated)
Saccharomyces cerevisiae [1]
  Relative Growth: -0.0962
Saccharomyces cerevisiae [2]
  Relative Growth: 0.0048
Saccharomyces cerevisiae [3]
  Relative Growth: 0.0233

## Cc1ccc2cc3c(N)c4c(C)ccc(C)c4nc3nc2c1
Saccharomyces cerevisiae [1]
  Relative Growth: 0.0134
Saccharomyces cerevisiae [2]
  Relative Growth: 0.0509
Saccharomyces cerevisiae [3]
  Relative Growth: 0.1003

## Cc1ccc(Cn2c(N3CCC(C(=O)NCc4cccs4)CC3)nc3ccccc32)cc1
Saccharomyces cerevisiae [1]
  Relative Growth: -0.105
Saccharomyces cerevisiae [2]
  Relative Growth: -0.1621
Saccharomyces cerevisiae [3]
  Relative Growth: -0.0044

## CCOC(=O)c1cnc2ccc(Cl)cc2c1NCCCN(C)C
Saccharomyces cerevisiae [1]
  Relative Growth: 0.0203
Saccharomyces cerevisiae [2]
  Relative Growth: -0.0264
Saccharomyces cerevisiae [3]
  Relative Growth: 0.0022

## Cc1ccc(-c2cc(C(=O)Nc3ccc(S(=O)(=O)N4CCCCC4)cc3)[nH]n2)c(O)c1
Saccharomyces cerevisiae [1]
  Relative Growth: -0.07
Saccharomyces cerevisiae [2]
  Relative Growth: -0.0163
Saccharomyces cerevisiae [3]
  Relative Growth: -0.0309

## O=C(Nc1ccc(CN2CCOCC2)cc1)c1ccc(-c2cc(Cl)ccc2Cl)o1
Saccharomyces cerevisiae [1]
  Relative Growth: 0.0021
Saccharomyces cerevisiae [2]
  Relative Growth: -0.173
Saccharomyces cerevisiae [3]
  Relative Growth: 0.0214

## O=C(NC1CCN(Cc2ccccc2)CC1)c1cc(-c2ccncc2)nc2ccc(Cl)cc12
Saccharomyces cerevisiae [1]
  Relative Growth: -0.0217
Saccharomyces cerevisiae [2]
  Relative Growth: -0.2602
Saccharomyces cerevisiae [3]
  Relative Growth: 0.1716

## COc1ccc2c(c1OC)C(=O)N1c3ccccc3N=C(c3ccc(C)cc3)CC21 (configuration not stated)
Saccharomyces cerevisiae [1]
  Relative Growth: -0.0173
Saccharomyces cerevisiae [2]
  Relative Growth: -1.0982
Saccharomyces cerevisiae [3]
  Relative Growth: -1.0612

## C[n+]1c2ccccc2nc2ccc(NCCO)cc21
Saccharomyces cerevisiae [1]
  Relative Growth: -0.1972
Saccharomyces cerevisiae [2]
  Relative Growth: -0.0436
Saccharomyces cerevisiae [3]
  Relative Growth: 0.0053

## CCOc1ccc(/C=C/c2nc(=O)c3ccccc3o2)cc1
Saccharomyces cerevisiae [1]
  Relative Growth: 0.0045
Saccharomyces cerevisiae [2]
  Relative Growth: 0.0498
Saccharomyces cerevisiae [3]
  Relative Growth: 0.0067

## CN(C)c1ccc(N2C(N)=NC(N)=NC2(C)C)cc1
Saccharomyces cerevisiae [1]
  Relative Growth: -0.0542
Saccharomyces cerevisiae [2]
  Relative Growth: 0.007
Saccharomyces cerevisiae [3]
  Relative Growth: 0.0279

## Cc1cc(Nc2ccc(OCc3ccccc3)cc2)nc2cc(O)ccc12
Saccharomyces cerevisiae [1]
  Relative Growth: 0.0868
Saccharomyces cerevisiae [2]
  Relative Growth: 0.3239
Saccharomyces cerevisiae [3]
  Relative Growth: -0.1895

## CCOC(=O)c1c[nH]c2c(CC)cccc2c1=O
Saccharomyces cerevisiae [1]
  Relative Growth: -0.0665
Saccharomyces cerevisiae [2]
  Relative Growth: -0.0989
Saccharomyces cerevisiae [3]
  Relative Growth: -0.1466

## CCCCCCC(O)(c1ccc(F)cc1)C(CN1CCOCC1)c1ccccc1.Cl (configuration not stated)
Saccharomyces cerevisiae [1]
  Relative Growth: -0.0019
Saccharomyces cerevisiae [2]
  Relative Growth: -0.0435
Saccharomyces cerevisiae [3]
  Relative Growth: -0.1565

## Cc1cc(N2CCCC2)nc(Nc2ccc(NC(=O)CCc3ccccc3)cc2)n1
Saccharomyces cerevisiae [1]
  Relative Growth: -0.047
Saccharomyces cerevisiae [2]
  Relative Growth: -0.093
Saccharomyces cerevisiae [3]
  Relative Growth: -0.0661

## COc1ccc(N2CCN(C(CNC(=O)CC(C)(C)C)c3ccc4c(c3)OCO4)CC2)cc1 (configuration not stated)
Saccharomyces cerevisiae [1]
  Relative Growth: 0.0032
Saccharomyces cerevisiae [2]
  Relative Growth: -0.1806
Saccharomyces cerevisiae [3]
  Relative Growth: -0.0787

## CCC(C)NCC(O)(c1ccc(Cl)cc1)c1ccc(Cl)cc1 (configuration not stated)
Saccharomyces cerevisiae [1]
  Relative Growth: 0.0173
Saccharomyces cerevisiae [2]
  Relative Growth: -0.0906
Saccharomyces cerevisiae [3]
  Relative Growth: 0.042

## CCN(Cc1ccccc1)C1CCN(Cc2cc(Br)ccc2O)CC1.O=C(O)C(=O)O
Saccharomyces cerevisiae [1]
  Relative Growth: -0.0428
Saccharomyces cerevisiae [2]
  Relative Growth: 0.0185
Saccharomyces cerevisiae [3]
  Relative Growth: 0.0515
